According to patent publication EP0863769B1 (priority 1996, dated 1998):

Columns and labels:
B/NIB/15/89 M = assay type: binding, Influenza Viren; settings: read-out: Affinität der Bindung an Virus, Kaff
A/NIB/47/89 M = assay type: binding, Influenza Viren; settings: read-out: Affinität der Bindung an Virus, Kaff
B/NIB/48/90 M = assay type: binding, Influenza Viren; settings: read-out: Affinität der Bindung an Virus, Kaff
A/NIB/44/90 M = assay type: binding, Influenza Viren; settings: read-out: Affinität der Bindung an Virus, Kaff
A/NIB/3/90 M = assay type: binding, Influenza Viren; settings: read-out: Affinität der Bindung an Virus, Kaff
A/NIB/12/89 M = assay type: binding, Influenza Viren; settings: read-out: Affinität der Bindung an Virus, Kaff
A/NIB/23/89 M = assay type: binding, Influenza Viren; settings: read-out: Affinität der Bindung an Virus, Kaff
[1] = system: menschlicher Influenza Viren der Typen A und B; assay type: binding
A/England/157/83 M = assay type: binding, Influenza Viren; settings: read-out: Affinität der Bindung an Virus, Kaff
B/England/222/82 M = assay type: binding, Influenza Viren; settings: read-out: Affinität der Bindung an Virus, Kaff
A/NIB/50/89 M = assay type: binding, Influenza Viren; settings: read-out: Affinität der Bindung an Virus, Kaff

Poly-N-(2-Hydroxyethyl)-acrylamid mit 20% mol. 6SLN [6SLN-PAA]
Kd (B/NIB/15/89 M): 20 nM | Kd (A/NIB/47/89 M): 10 nM | Kd (B/NIB/48/90 M): 40 nM | Kd (A/NIB/44/90 M): 10 nM | Kd (A/NIB/3/90 M): 10 nM | Kd (A/NIB/12/89 M): 100 nM | Kd (A/NIB/23/89 M): 20 nM | Inhibition der viralen Zelladhäsion [1]: hervoragender Inhibitor aller authentischer Influenza Stämme | Kd (A/England/157/83 M): 30 nM | Kd (B/England/222/82 M): 40 nM | Kd (A/NIB/50/89 M): 20 nM
